Legend:
[1] = system: MMP-2; experiment: Substrate phage display with NGS: relative probability (RP) of P3-P1' tetramer clusters; type: biochemical, human; conditions: MMP2;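 note: ratio of tetramer probability after protease selection to that in naive phage library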
[2] = molecular target: T1, MMP-2 (Homo sapiens, UniProt P08253); experiment: K(obs) of individual phage substrates (set of 1369); type: biochemical; conditions: MMP2
T1 sequence (P08253 110-660): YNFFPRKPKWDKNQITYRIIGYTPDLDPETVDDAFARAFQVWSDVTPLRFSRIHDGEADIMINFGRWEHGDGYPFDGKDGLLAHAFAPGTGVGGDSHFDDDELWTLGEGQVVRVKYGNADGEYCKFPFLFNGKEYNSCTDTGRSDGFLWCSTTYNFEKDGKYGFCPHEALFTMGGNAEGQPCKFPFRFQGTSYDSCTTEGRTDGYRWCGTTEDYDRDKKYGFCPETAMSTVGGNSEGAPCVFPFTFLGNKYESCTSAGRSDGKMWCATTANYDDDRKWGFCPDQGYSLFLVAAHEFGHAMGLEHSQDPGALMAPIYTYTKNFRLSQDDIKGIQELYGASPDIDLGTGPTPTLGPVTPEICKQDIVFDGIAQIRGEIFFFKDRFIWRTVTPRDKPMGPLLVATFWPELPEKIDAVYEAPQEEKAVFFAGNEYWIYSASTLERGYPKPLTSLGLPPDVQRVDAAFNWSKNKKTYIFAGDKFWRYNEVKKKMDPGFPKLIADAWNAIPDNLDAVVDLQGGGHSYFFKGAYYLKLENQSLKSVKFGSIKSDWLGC

[3] = molecular target: MMP-9 (Homo sapiens, UniProt P14780); experiment: as above; type: biochemical; conditions: MMP9
[4] = RP of the P3-P1' tetramer contained in the substrate (substrate phage display with NGS)
[5] = individual phage substrates, set of 1369 peptides, cleavage position marked by hyphen in sequence
[6] = individual phage substrates, set of 1369 peptides, hyphen in sequence marks cleavage position
[7] = RP of the P3-P1' tetramer contained in the substrate
[8] = individual phage substrate of the set of 1369 peptides, cleavage position marked by '-'
[9] = individual phage substrate of the set of 1369 peptides, dash in the sequence marks the cleavage position

MMP-9, sequence (P14780 94-707): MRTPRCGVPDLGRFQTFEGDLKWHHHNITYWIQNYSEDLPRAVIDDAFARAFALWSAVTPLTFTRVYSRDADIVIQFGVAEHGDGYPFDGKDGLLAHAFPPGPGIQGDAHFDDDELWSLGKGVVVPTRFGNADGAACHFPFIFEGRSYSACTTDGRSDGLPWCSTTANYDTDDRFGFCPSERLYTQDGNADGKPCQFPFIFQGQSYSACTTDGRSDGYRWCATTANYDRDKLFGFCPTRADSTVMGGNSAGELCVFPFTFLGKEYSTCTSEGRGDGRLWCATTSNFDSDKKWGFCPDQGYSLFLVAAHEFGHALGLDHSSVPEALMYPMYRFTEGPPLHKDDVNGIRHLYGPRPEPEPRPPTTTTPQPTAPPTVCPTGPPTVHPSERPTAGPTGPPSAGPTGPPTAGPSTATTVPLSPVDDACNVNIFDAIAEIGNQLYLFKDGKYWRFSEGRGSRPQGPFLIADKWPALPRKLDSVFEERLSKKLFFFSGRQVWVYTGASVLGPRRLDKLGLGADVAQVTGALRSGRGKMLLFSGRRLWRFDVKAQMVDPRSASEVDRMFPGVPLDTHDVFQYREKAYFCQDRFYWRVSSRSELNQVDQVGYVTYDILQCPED

Substance	relative probability (RP) [1, 4]	Kobs [2, 5] [M⁻¹ s⁻¹]	Kobs [3, 6] [M⁻¹ s⁻¹]	relative probability (RP) [1, 7]	Kobs [2, 8] [M⁻¹ s⁻¹]	Kobs [3, 9] [M⁻¹ s⁻¹]
RDVLA-LTASG	13.5229	3438.54	3165.09			
REPLT-LTASG				24.2603	12792.1	12792.1
RFALN-LTASG	17.2813	7015.91	9740.44			
RFPRP-ITASG				33.2176	12792.1	12792.1
RGPYH-LTASG	27.2418	12792.1	12792.1			
RGPYM-LTASG	24.9477	6688.74	12792.1			
RILGY-LTASG	24.8925	12792.1	292.668			
RIPAS-LTASG				36.4285	12792.1	12792.1
RIPRF-LTASG				28.4443	12792.1	12792.1
RKPAP-WTASG				31.7353	8321.48	3253.29
RKVRN-WTASG	17.7682	0	201.585			
RLANA-LTASG				20.3526	3741.87	619.843
RLANN-LTASG				18.8719	5461.43	484.315
RLLLN-MTASG	13.7728	2916.17	1112.44			
RLPVA-ITASG				32.4892	12792.1	12792.1
RLPVH-YTASG				23.3589	7815.03	12792.1
RLPWS-LTASG				28.5684	5667.28	12792.1
RLYMN-ITASG	0	0	0			
RMLAQ-LTASG	25.841	12792.1	113.394			
RNGLA-LTASG	0.6848	0	0			
RNPEW-MTASG	12.3271	2996.69	4763.33			
RPPLA-FTASG				31.4142	7386.83	12792.1
RPPSS-LTASG	35.4913	10866.7	9740.44			
RQLAA-ITASG				28.8382	4205.91	355.093
RQLAH-ITASG	25.9365	10866.7	27.918			
RQVRY-LTASG	18.3724	8321.48	7015.91			

From PMC7932537, “Quantitative profiling of protease specificity” (PLoS Computational Biology, 2021)
